From patent US20010043936A1, “CHEMICAL COMPOSITION” (priority 1997, published 2001)

Assays:
[1] = tested on: Mixed Bacteria; test: Inoculation test of preserved cream formulation with mixed bacteria, surviving organisms counted; format: cell-based; settings: control: IPBC 25 ppm, PhOH 0 ppm in cream
[2] = tested on: Mixed Fungi; test: Inoculation test of preserved cream formulation with mixed fungi, surviving organisms counted; format: cell-based; settings: control: IPBC 25 ppm, PhOH 0 ppm in cream
Experimental: A batch of a cream formulation comprising an oil-in-water emulsion containing 7.5 wt % Crodex A (an emulsifying wax ex-Croda Chemicals), 5.0 wt % propylene glycol and 87.5 wt % sterile water was prepared using a homogenising mixer.
Portions of the cream formulation were admixed with a preservative system comprising iodopropynyl butyl carbamate and phenoxyethanol at varying weight ratios of iodopropynyl butyl carbamate to phenoxyethanol. In each case the content of the iodopropynyl butyl carbamate in the cream formulation was kept constant at a level of 0.0025 wt % with respect of the total weight of the formulation.
Each portion of the formulation was divided into two. One specimen was inoculated with 7.5×10^7 mixed bacteria per g of cream. The other specimen was inoculated with 2.4×10^6 mixed fungi per g of cream.
For each specimen the number of surviving organisms was determined at 0 hours, […] and 72 hours after inoculation.

iodopropynyl butyl carbamate [IPBC]
organisms surviving, Mixed Bacteria, 0 Hours ([1]; 0 Hours): TNTC | organisms surviving, Mixed Bacteria, 24 Hours ([1]; 24 Hours): 1.8 × 10^6 | organisms surviving, Mixed Bacteria, 72 Hours ([1]; 72 Hours): 2.9 × 10^5 | organisms surviving, Mixed Fungi, 0 Hours ([2]; 0 Hours): 8 × 10^5 | organisms surviving, Mixed Fungi, 24 Hours ([2]; 24 Hours): 1.2 × 10^5 | organisms surviving, Mixed Fungi, 72 Hours ([2]; 72 Hours): 5.2 × 10^4
